≈ marks a conversion by molar mass, not a printed value.
Assays:
[1] = biological target: Bromodomain-containing protein 4 (Homo sapiens, UniProt O60885)
Description: Inhibition of BRD4 bromodomain 1 (unknown origin) by TR-FRET assay

in vitro [2] = details: human, microsomes
Description: Clearance in human liver microsomes

in vitro [3] = details: rat, microsomes
Description: Clearance in rat liver microsomes

in vitro [4] = details: mouse, microsomes
Description: Clearance in mouse liver microsomes

in vivo [5] = details: CD-1, mouse, po, 5 mg/kg
physchem = details: buffer, pH 7.4
Description: Kinetic solubility in PBS buffer at pH 7.4

in vitro [6] = details: rat, hepatocytes
Description: Hepatic clearance in rat hepatocytes

in vitro [7] = details: mouse, plasma
Description: Protein binding in mouse plasma

in vitro [8] = details: dog, MDCK
Description: Apparent permeability from apical to basolateral side in MDCK cells

in vitro [9] = details: mouse, hepatocytes
Description: Hepatic clearance in mouse hepatocytes

in vitro [10] = details: rat, plasma
Description: Protein binding in rat plasma

in vitro [11] = details: human, plasma
Description: Protein binding in human plasma

in vivo [12] = details: CD-1, mouse
Description: Half life in CD-1 mouse at 1 mg/kg, iv or 5 mg/kg, po

in vivo [13] = details: CD-1, mouse, iv, 1 mg/kg
Description: Clearance in CD-1 mouse at 1 mg/kg, iv or 5 mg/kg, po

in vitro [14] = details: human, hepatocytes
Description: Hepatic clearance in human hepatocytes

in vivo [15] = details: CD-1, mouse, iv, 1 mg/kg; remark: listed apart in the source
Description: Volume of distribution at steady state in CD-1 mouse at 1 mg/kg, iv or 5 mg/kg, po

Structure (SMILES) | IC50 [1] | CLhep predicted (in vitro [2]) | CLhep predicted (in vitro [3]) | CLhep predicted (in vitro [4]) | other results
CC(=O)N1CCc2c(c(-c3cncc4ccccc34)nn2C2CCOCC2)C1 | > 20 µM | – | – | – | –
CC(=O)N1CCc2c(c(-c3cc(CO)cc4ccncc34)nn2C2CCOCC2)C1 | > 20 µM | – | – | – | –
COc1ccc(-c2nn(C3CCOCC3)c3c2CN(C(C)=O)CC3)c2cnccc12 | 11 µM | – | – | – | –
CC(=O)N1CCc2c(c(-c3cccc4c[nH]c(=O)cc34)nn2C2CCOCC2)C1 | > 20 µM | – | – | – | –
CC(=O)N1CCc2c(c(-c3cccc4cc(-c5cn(C)nc5C#N)ncc34)nn2C2CCOCC2)C1 | 3.8 µM | 11 mL/min/kg | 45 mL/min/kg | 32 mL/min/kg | –
CC(=O)N1CCc2c(c(-c3cccc4cc(-c5cnn(C)c5)ncc34)nn2C2CCOCC2)C1 | 2.5 µM | 8 to 8.3 mL/min/kg | 18 mL/min/kg | 20 mL/min/kg | bioavailability (in vivo [5]): 67%; solubility kinetic (physchem): 92 µM (≈ 42 µg/mL); CLhep predicted (in vitro [6]): 14 mL/min/kg; fraction unbound (in vitro [7]): 0.15; Papp A→B (in vitro [8]): 10 ×10⁻⁶ cm/s; CLhep predicted (in vitro [9]): < 21 mL/min/kg; fraction unbound (in vitro [10]): 0.24; fraction unbound (in vitro [11]): 0.3; half-life (in vivo [12]): 1.6 h; clearance (in vivo [13]): 11 mL/min/kg; CLhep predicted (in vitro [14]): < 6 mL/min/kg; Vd (in vivo [15]): 1.3 L/kg

— ChEMBL document CHEMBL4184171, “Design and synthesis of a biaryl series as inhibitors for the bromodomains of CBP/P300” (Bioorg Med Chem Lett, 2018)
